Test results published in ChEMBL document CHEMBL3886179, “Substituted 6, 7-dialkoxy-3-isoquinoline derivatives as inhibitors of phosphodiesterase 10 (PDE 10A)” (2015).

What follows are molecules tested against cAMP and cAMP-inhibited cGMP 3',5'-cyclic phosphodiesterase 10A (Homo sapiens, UniProt Q9Y233) (assay: Diaxonhit Phosphodiesterase Assay: The phosphodiesterase assay was developed using the LANCE cAMP kit (PerkinElmer). The assay buffer contained HBSS with 5 mM HEPES, 0.1% BSA, and 1.5 mM MgCl2, pH 7.4. PDE10A (BPS Bioscience) was used at 200 pg/well (with a specific activity of 3200 pmole/min/ug with assay conditions: 10 mM Tris-HCl, pH 7.4, 10 mM MgCl2, 1 mM MnCl2, 200 uM cAMP, 2.5 kU 5' nucleotidase, 37° C., 20 min) and PDE4D3 (BPS Bioscience) was used at 100 pg/well (with a specific activity of 32713 pmole/min/ug with assay conditions: 10 mM Tris-HCl, pH 7.4, 10 mM MgCl2, 1 mM MnCl2, 200 uM cAMP, 2.5 kU 5' nucleotidase, 37° C., 20 min). The Biotin-cAMP tracer, supplied in 10 mmol/L Tris-HCl buffered (pH 8.0) salt solution with 1 mmol/L ethylenediaminetetraacetic acid (EDTA), 0.1% bovine serum albumin (BSA), and 0.05% sodium azide, is used at a dilution of 1/375. The assay detection mixture contained the LANCE Eu-W8044 labeled streptavidin 1/2250 (supplied in 50 mmol/L Tris-HCl buffer).).
Sequence of cAMP and cAMP-inhibited cGMP 3',5'-cyclic phosphodiesterase 10A (Q9Y233 whole entry): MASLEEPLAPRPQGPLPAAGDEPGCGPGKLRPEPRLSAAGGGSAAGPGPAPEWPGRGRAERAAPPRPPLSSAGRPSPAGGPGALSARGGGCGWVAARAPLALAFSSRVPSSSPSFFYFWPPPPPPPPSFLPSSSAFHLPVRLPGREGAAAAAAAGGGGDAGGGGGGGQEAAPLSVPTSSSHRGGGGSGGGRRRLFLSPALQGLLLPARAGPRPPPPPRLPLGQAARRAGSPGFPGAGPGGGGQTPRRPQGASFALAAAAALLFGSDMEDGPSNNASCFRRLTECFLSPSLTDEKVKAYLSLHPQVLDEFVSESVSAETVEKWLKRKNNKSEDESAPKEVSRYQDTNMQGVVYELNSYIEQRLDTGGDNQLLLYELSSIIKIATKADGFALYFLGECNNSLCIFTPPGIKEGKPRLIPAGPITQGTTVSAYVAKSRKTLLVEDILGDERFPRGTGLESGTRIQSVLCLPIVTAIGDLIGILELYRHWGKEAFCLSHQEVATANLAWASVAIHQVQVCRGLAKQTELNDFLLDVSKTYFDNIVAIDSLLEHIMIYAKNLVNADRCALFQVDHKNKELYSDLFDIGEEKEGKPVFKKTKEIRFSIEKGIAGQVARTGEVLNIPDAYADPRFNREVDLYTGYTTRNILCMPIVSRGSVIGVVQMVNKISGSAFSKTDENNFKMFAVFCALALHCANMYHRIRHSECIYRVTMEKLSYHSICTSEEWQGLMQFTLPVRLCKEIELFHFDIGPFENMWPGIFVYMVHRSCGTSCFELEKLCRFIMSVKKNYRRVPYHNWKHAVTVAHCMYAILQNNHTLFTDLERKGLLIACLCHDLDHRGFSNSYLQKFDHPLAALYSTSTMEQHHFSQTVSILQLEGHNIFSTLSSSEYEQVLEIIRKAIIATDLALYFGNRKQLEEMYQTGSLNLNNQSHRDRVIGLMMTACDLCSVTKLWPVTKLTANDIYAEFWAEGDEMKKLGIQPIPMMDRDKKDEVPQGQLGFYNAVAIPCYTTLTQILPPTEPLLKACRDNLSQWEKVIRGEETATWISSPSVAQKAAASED

IC50	SMILES
2.9 nM	COc1cc2cncc(Cc3cnc4ccc(O)cc4c3)c2cc1OC
8.6 nM	COCc1ncc(Cc2ccc3cccc(N)c3n2)c2cc(OC)c(OC)cc12
4.5 nM	COCc1ncc(Cc2cnc3ccc(O)c(C(F)(F)F)c3c2)c2cc(OC)c(OC)cc12
20 nM	COc1cc2cncc(Cc3ccc4nc(-c5ccc(CO)cc5)oc4c3)c2cc1OC
0.42 nM	COc1cc2cncc(Cc3ccc4cccc(NS(N)(=O)=O)c4n3)c2cc1OC
9.4 nM	CCCc1ncc(Cc2cnc3ccc(O)cc3c2)c2cc(OC)c(OC)cc12
2.5 nM	COc1cc2cncc(Cc3cnc4ccc(OCC(N)=O)cc4c3)c2cc1OC
204 nM	CCCc1ncc(Cc2ccc3cccc(NC(=O)COC(C)=O)c3n2)c2cc(OC)c(OC)cc12
15 nM	CCCc1ncc(Cc2ccc3cccc(NC(=O)CO)c3n2)c2cc(OC)c(OC)cc12
58 nM	CCCc1ncc(Cc2ccc3cccc(OCCNC(C)=O)c3n2)c2cc(OC)c(OC)cc12
49 nM	COc1cc2cncc(Cc3ccc4oc(-c5ccc(N)cc5)nc4c3)c2cc1OC
3110 nM	CCc1ncc(Cc2ccc3cccc(OC(C)=O)c3n2)c2cc(OC)c(OC)cc12
28 nM	COCc1ncc(Cc2ccc3cccc(OCCO)c3n2)c2cc(OC)c(OC)cc12
19 nM	COCc1ncc(Cc2ccc3cccc(O)c3n2)c2cc(OC)c(OC)cc12
19 nM	COc1cc2cncc(Cc3ccc4oc(-c5ccc(CO)cc5)nc4c3)c2cc1OC
0.71 nM	COc1cc2c(Cc3ccc4cccc(NS(N)(=O)=O)c4n3)cnc(C)c2cc1OC
28 nM	COc1cc2cncc(Cc3ccc4oc(-c5cccc(CO)c5)nc4c3)c2cc1OC
95 nM	COc1cc2cncc(Cc3ccc4oc(-c5ccccc5CO)nc4c3)c2cc1OC
7.9 nM	COc1cc2cncc(Cc3cnc4ccc(OCC(=O)O)cc4c3)c2cc1OC
13 nM	COc1cc2cncc(Cc3ccc4cccc(N)c4n3)c2cc1OC
71 nM	CCOC(=O)COc1cccc2ccc(Cc3cnc(COC)c4cc(OC)c(OC)cc34)nc12
109 nM	CCCc1ncc(Cc2ccc3cccc(OC(C)=O)c3n2)c2cc(OC)c(OC)cc12
148 nM	COc1cc2cncc(Cc3ccc4oc(-c5ccc(C#N)cc5)nc4c3)c2cc1OC
18 nM	COc1cc2c(Cc3cnc4ccc(O)cc4c3)cnc(C)c2cc1OC
5.6 nM	COCc1ncc(Cc2cnc3ccc(O)cc3c2)c2cc(OC)c(OC)cc12
13 nM	CCCc1ncc(Cc2cnc3ccc(O)c(C(F)(F)F)c3c2)c2cc(OC)c(OC)cc12
21 nM	COCc1ncc(Cc2ccc3cccc(OCC(N)=O)c3n2)c2cc(OC)c(OC)cc12
64 nM	CCCc1ncc(Cc2ccc3oc(=O)[nH]c3c2)c2cc(OC)c(OC)cc12
